Test results from patent US20250376483A1, “PRODRUGS OF PAN-KRAS INHIBITORS” (Mirati Therapeutics, Inc., priority 2022, published 2025).

Columns and labels:
[1] = Whole Blood Stability Assay (mouse whole blood); format: in vitro ADME; conditions: CD-1 mouse blood, EDTA-K2, final conc. 2 μM, 37° C., 0-120 min; for half-life at 2 μM: male, fresh whole blood, read-out: Mouse Whole Blood Stability t1/2
Method in brief: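 Compound at 2 μM final was incubated at 37 °C in fresh EDTA-K2 blood from male CD-1 mice. Samples at 0, 10, 30, 60 and 120 min were protein-precipitated with acetonitrile and analysed by LC-MS/MS. % remaining was derived from analyte/internal-standard peak area ratios.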

[2] = Plasma Stability Assay (human plasma); format: in vitro ADME; conditions: both sexes; pooled human plasma, heparin, final conc. 2 μM, 37° C., 0-120 min; read-out: Human Plasma Stability t1/2
Method in brief: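 Compound at 2 μM final in pooled heparinised plasma (3 male, 3 female), incubated at 37° C with sampling at 0, 10, 30, 60 and 120 min. Acetonitrile stop, LC-MS/MS; % remaining from analyte/internal-standard peak area ratio relative to T0.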

half-life at 2 μM [1] [h] | half-life at 2 μM [2] [h] | Mouse Whole Blood Stability t1/2 [1] [min] | Compound
< 0.0833 | 2.43 |  | CCc1c(F)ccc2cc(OC(=O)OC(C)C)cc(-c3ncc4c(N5C[C@@H]6C[C@H](C5)[C@H](O)C6)nc(OC[C@@]56CCCN5C[C@H](F)C6)nc4c3F)c12 [Example 15, 5-ethyl-6-fluoro-4-(8-fluoro-2-(((2R,7aS)-2-fluorotetrahydro-1H-pyrrolizin-7a(5H)-yl)methoxy)-4-((1R,5R,6R)-6-hydroxy-3-azabicyclo[3.2.1]octan-3-yl)pyrido[4,3-d]pyrimidin-7-yl)naphthalen-2-yl isopropyl carbonate]
0.0333 | 0.2 |  | CCc1c(F)ccc2cc(OC(C)=O)cc(N3CCc4c(nc(OC[C@@]56CCCN5C[C@H](F)C6)nc4N4CCC[C@]5(C4)NC(=O)NC5=O)C3)c12 [Example 27, 4-(4-((R)-2,4-dioxo-1,3,7-triazaspiro[4.5]decan-7-yl)-2-(((2R,7aS)-2-fluorotetrahydro-1H-pyrrolizin-7a(5H)-yl)methoxy)-5,8-dihydropyrido[3,4-d]pyrimidin-7(6H)-yl)-5-ethyl-6-fluoronaphthalen-2-yl acetate]
> 4.82 | > 4.82 |  | CCc1c(F)ccc2cc(OCOC(=O)N(C)C)cc(N3CCc4c(nc(OC[C@@]56CCCN5C[C@H](F)C6)nc4N4CCC[C@]5(C4)NC(=O)NC5=O)C3)c12 [Example 52, ((4-(4-((R)-2,4-dioxo-1,3,7-triazaspiro[4.5]decan-7-yl)-2-(((2R,7aS)-2-fluorotetrahydro-1H-pyrrolizin-7a(5H)-yl)methoxy)-5,8-dihydropyrido[3,4-d]pyrimidin-7(6H)-yl)-5-ethyl-6-fluoronaphthalen-2-yl)oxy)methyl dimethylcarbamate]
 | 1.28 | 1 | CCCCCCCCCC(=O)Oc1cc(-c2ncc3c(N4C[C@@H]5C[C@H](C4)[C@H](O)C5)nc(OC[C@@]45CCCN4C[C@H](F)C5)nc3c2F)c2c(CC)c(F)ccc2c1 [Example 25, 5-ethyl-6-fluoro-4-(8-fluoro-2-(((2R,7aS)-2-fluorotetrahydro-1H-pyrrolizin-7a(5H)-yl)methoxy)-4-((1R,5R,6R)-6-hydroxy-3-azabicyclo[3.2.1]octan-3-yl)pyrido[4,3-d]pyrimidin-7-yl)naphthalen-2-yl decanoate]

Continued, compound first:

Compound | half-life at 2 μM [1] [h] | half-life at 2 μM [2] [h] | Mouse Whole Blood Stability t1/2 [1] [min]
CCc1c(F)ccc2cc(OC(=O)N3CCCC3)cc(N3CCc4c(nc(OC[C@@]56CCCN5C[C@H](F)C6)nc4N4CCC[C@]5(C4)NC(=O)NC5=O)C3)c12 [Example 43, 4-(4-((R)-2,4-dioxo-1,3,7-triazaspiro[4.5]decan-7-yl)-2-(((2R,7aS)-2-fluorotetrahydro-1H-pyrrolizin-7a(5H)-yl)methoxy)-5,8-dihydropyrido[3,4-d]pyrimidin-7(6H)-yl)-5-ethyl-6-fluoronaphthalen-2-yl pyrrolidine-1-carboxylate] | > 4.82 | > 4.82 | 
CCc1c(F)ccc2cc(OC(=O)N3CCC(C)CC3)cc(N3CCc4c(nc(OC[C@@]56CCCN5C[C@H](F)C6)nc4N4CCC[C@]5(C4)NC(=O)NC5=O)C3)c12 [Example 56, 4-(4-((R)-2,4-dioxo-1,3,7-triazaspiro[4.5]decan-7-yl)-2-(((2R,7aS)-2-fluorotetrahydro-1H-pyrrolizin-7a(5H)-yl)methoxy)-5,8-dihydropyrido[3,4-d]pyrimidin-7(6H)-yl)-5-ethyl-6-fluoronaphthalen-2-yl 4-methylpiperidine-1-carboxylate] | > 4.82 | > 4.82 | 
CCc1c(F)ccc2cc(OC(=O)OC)cc(-c3ncc4c(N5C[C@@H]6C[C@H](C5)[C@H](O)C6)nc(OC[C@@]56CCCN5C[C@H](F)C6)nc4c3F)c12 [Example 9, 5-ethyl-6-fluoro-4-(8-fluoro-2-(((2R,7aS)-2-fluorotetrahydro-1H-pyrrolizin-7a(5H)-yl)methoxy)-4-((1R,5R,6R)-6-hydroxy-3-azabicyclo[3.2.1]octan-3-yl)pyrido[4,3-d]pyrimidin-7-yl)naphthalen-2-yl methyl carbonate] |  | 0.15 | 1
